Reference: patent US20230220021A1, “CYCLIC PEPTIDE INHIBITORS OF PSD-95 AND USES THEREOF” (University of Copenhagen, priority 2020, published 2023)
pKi: −log10 of the molar value. Where a SMILES comes first, the peptide text is derived from it. [ ]: non-standard residue; d: D form.

Each compound was assayed against T1, PSD-95-PDZ2 (Homo sapiens, UniProt P78352) (assay: Fluorescence polarization (FP) competition assay against cyclic nNOS TAMRA probe). Settings: FP competition, cyclic nNOS TAMRA probe; mean of triplicates; N.B. = not binding; read-out: Ki.
T1 construct: 7xHis (N); made in house; host or cells: Escherichia coli B21 pLys (for the mutants, 'as previously described')
Type: binding

T1 sequence (P78352 160-246 limits assumed): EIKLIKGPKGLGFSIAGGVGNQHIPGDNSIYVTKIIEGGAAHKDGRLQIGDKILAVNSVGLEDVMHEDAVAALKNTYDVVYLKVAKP

pKi	SMILES
6.00	CC[C@H](C)[C@@H]1NC(=O)[C@H]([C@@H](C)O)NC(=O)[C@H](CCCCN)NC(=O)[C@@H]2CCCN2C(=O)[C@H]([C@@H](C)O)NC(=O)CNC(=O)[C@H](CCCNC(=N)N)NC(=O)CNC(=O)[C@H]([C@@H](C)O)NC(=O)[C@H](Cc2ccccc2)NC(=O)[C@H]([C@@H](C)O)NC(=O)[C@H]([C@@H](C)O)NC(=O)[C@H](CCC(=O)O)NC(=O)[C@H](CC(C)C)NC(=O)[C@H](Cc2c[nH]cn2)NC(=O)[C@H]([C@@H](C)O)NC(=O)[C@H](CCC(N)=O)NC(=O)CNC(=O)[C@H]2CCCN2C(=O)[C@H](CCC(N)=O)NC(=O)[C@H]([C@@H](C)O)NC(=O)[C@H](C(C)C)NC(=O)[C@H](CCCNC(=N)N)NC1=O [compound 34] (cyclo(THLETTFTGRGTPKTIRVTQ[dP]GQ))
5.75	CC(C)C[C@@H]1NC(=O)[C@H](Cc2c[nH]cn2)NC(=O)[C@H]([C@@H](C)O)NC(=O)[C@H](CCC(N)=O)NC(=O)CNC(=O)[C@H]2CCCN2C(=O)[C@H](CCC(N)=O)NC(=O)[C@H]([C@@H](C)O)NC(=O)[C@H](C(C)C)NC(=O)[C@H](CCCNC(=N)N)NC(=O)[C@H](CCCNC(=N)N)NC(=O)[C@H]([C@@H](C)O)NC(=O)[C@H](CCCCN)NC(=O)[C@@H]2CCCN2C(=O)[C@H]([C@@H](C)O)NC(=O)CNC(=O)[C@H](CC(=O)O)NC(=O)CNC(=O)[C@H]([C@@H](C)O)NC(=O)[C@H](Cc2ccccc2)NC(=O)[C@H]([C@@H](C)O)NC(=O)[C@H]([C@@H](C)O)NC(=O)[C@H](CCC(=O)O)NC1=O [compound 41] (cyclo(THLETTFTGDGTPKTRRVTQ[dP]GQ))

Same assay, conditions: FP inhibition constant normalized to WT value

Relative Ki (Ki mut/Ki WT)	SMILES
1.91	CC[C@H](C)[C@@H]1NC(=O)[C@H]([C@@H](C)O)NC(=O)[C@H](CCCCN)NC(=O)[C@@H]2CCCN2C(=O)[C@H]([C@@H](C)O)NC(=O)CNC(=O)[C@H](CCCCN)NC(=O)CNC(=O)[C@H]([C@@H](C)O)NC(=O)[C@H](Cc2ccccc2)NC(=O)[C@H]([C@@H](C)O)NC(=O)[C@H]([C@@H](C)O)NC(=O)[C@H](CCC(=O)O)NC(=O)[C@H](CC(C)C)NC(=O)[C@H](Cc2c[nH]cn2)NC(=O)[C@H]([C@@H](C)O)NC(=O)[C@H](CCC(N)=O)NC(=O)CNC(=O)[C@H]2CCCN2C(=O)[C@H](CCC(N)=O)NC(=O)[C@H]([C@@H](C)O)NC(=O)[C@H](C(C)C)NC(=O)[C@H](CCCNC(=N)N)NC1=O [compound 28] (cyclo(THLETTFTGKGTPKTIRVTQ[dP]GQ))
1.60	CC[C@H](C)[C@@H]1NC(=O)[C@H]([C@@H](C)O)NC(=O)[C@H](CCCCN)NC(=O)[C@@H]2CCCN2C(=O)[C@H]([C@@H](C)O)NC(=O)CNC(=O)[C@@H]2CCCN2C(=O)CNC(=O)[C@H]([C@@H](C)O)NC(=O)[C@H](Cc2ccccc2)NC(=O)[C@H]([C@@H](C)O)NC(=O)[C@H]([C@@H](C)O)NC(=O)[C@H](CCC(=O)O)NC(=O)[C@H](CC(C)C)NC(=O)[C@H](Cc2c[nH]cn2)NC(=O)[C@H]([C@@H](C)O)NC(=O)[C@H](CCC(N)=O)NC(=O)CNC(=O)[C@H]2CCCN2C(=O)[C@H](CCC(N)=O)NC(=O)[C@H]([C@@H](C)O)NC(=O)[C@H](C(C)C)NC(=O)[C@H](CCCNC(=N)N)NC1=O [compound 29] (cyclo(THLETTFTGPGTPKTIRVTQ[dP]GQ))
0.77	CC[C@H](C)[C@@H]1NC(=O)[C@H]([C@@H](C)O)NC(=O)[C@H](CCCCN)NC(=O)[C@@H]2CCCN2C(=O)[C@@H]2CCCN2C(=O)CNC(=O)[C@H](CC(=O)O)NC(=O)CNC(=O)[C@H]([C@@H](C)O)NC(=O)[C@H](Cc2ccccc2)NC(=O)[C@H]([C@@H](C)O)NC(=O)[C@H]([C@@H](C)O)NC(=O)[C@H](CCC(=O)O)NC(=O)[C@H](CC(C)C)NC(=O)[C@H](Cc2c[nH]cn2)NC(=O)[C@H]([C@@H](C)O)NC(=O)[C@H](CCC(N)=O)NC(=O)CNC(=O)[C@H]2CCCN2C(=O)[C@H](CCC(N)=O)NC(=O)[C@H]([C@@H](C)O)NC(=O)[C@H](C(C)C)NC(=O)[C@H](CCCNC(=N)N)NC1=O [compound 31] (cyclo(THLETTFTGDGPPKTIRVTQ[dP]GQ))
0.66	CC[C@H](C)[C@@H]1NC(=O)[C@H]([C@@H](C)O)NC(=O)[C@H](CCCCN)NC(=O)[C@@H]2CCCN2C(=O)[C@H]([C@@H](C)O)NC(=O)CNC(=O)[C@H](CCCNC(=N)N)NC(=O)CNC(=O)[C@H]([C@@H](C)O)NC(=O)[C@H](Cc2ccccc2)NC(=O)[C@H]([C@@H](C)O)NC(=O)[C@H]([C@@H](C)O)NC(=O)[C@H](CCC(=O)O)NC(=O)[C@H](CC(C)C)NC(=O)[C@H](Cc2c[nH]cn2)NC(=O)[C@H]([C@@H](C)O)NC(=O)[C@H](CCC(N)=O)NC(=O)CNC(=O)[C@H]2CCCN2C(=O)[C@H](CCC(N)=O)NC(=O)[C@H]([C@@H](C)O)NC(=O)[C@H](C(C)C)NC(=O)[C@H](CCCNC(=N)N)NC1=O [compound 34] (cyclo(THLETTFTGRGTPKTIRVTQ[dP]GQ))
0.50	CC[C@H](C)[C@@H]1NC(=O)[C@H]([C@@H](C)O)NC(=O)[C@H](CCCCN)NC(=O)[C@@H]2CCCN2C(=O)[C@H]([C@@H](C)O)NC(=O)[C@H](CCCNC(=N)N)NC(=O)[C@H](CC(=O)O)NC(=O)CNC(=O)[C@H]([C@@H](C)O)NC(=O)[C@H](Cc2ccccc2)NC(=O)[C@H]([C@@H](C)O)NC(=O)[C@H]([C@@H](C)O)NC(=O)[C@H](CCC(=O)O)NC(=O)[C@H](CC(C)C)NC(=O)[C@H](Cc2c[nH]cn2)NC(=O)[C@H]([C@@H](C)O)NC(=O)[C@H](CCC(N)=O)NC(=O)CNC(=O)[C@H]2CCCN2C(=O)[C@H](CCC(N)=O)NC(=O)[C@H]([C@@H](C)O)NC(=O)[C@H](C(C)C)NC(=O)[C@H](CCCNC(=N)N)NC1=O [compound 35] (cyclo(THLETTFTGDRTPKTIRVTQ[dP]GQ))
0.69	CC[C@H](C)[C@@H]1NC(=O)[C@H]([C@@H](C)O)NC(=O)[C@H](CCCCN)NC(=O)[C@@H]2CCCN2C(=O)[C@H](Cc2c[nH]c3ccccc23)NC(=O)CNC(=O)[C@H](CC(=O)O)NC(=O)CNC(=O)[C@H]([C@@H](C)O)NC(=O)[C@H](Cc2ccccc2)NC(=O)[C@H]([C@@H](C)O)NC(=O)[C@H]([C@@H](C)O)NC(=O)[C@H](CCC(=O)O)NC(=O)[C@H](CC(C)C)NC(=O)[C@H](Cc2c[nH]cn2)NC(=O)[C@H]([C@@H](C)O)NC(=O)[C@H](CCC(N)=O)NC(=O)CNC(=O)[C@H]2CCCN2C(=O)[C@H](CCC(N)=O)NC(=O)[C@H]([C@@H](C)O)NC(=O)[C@H](C(C)C)NC(=O)[C@H](CCCNC(=N)N)NC1=O [compound 36] (cyclo(THLETTFTGDGWPKTIRVTQ[dP]GQ))
0.91	CC[C@H](C)[C@@H]1NC(=O)[C@H]([C@@H](C)O)NC(=O)[C@H](CCCCN)NC(=O)[C@@H]2CCCN2C(=O)[C@H](CS)NC(=O)CNC(=O)[C@H](CC(=O)O)NC(=O)CNC(=O)[C@H]([C@@H](C)O)NC(=O)[C@H](Cc2ccccc2)NC(=O)[C@H]([C@@H](C)O)NC(=O)[C@H]([C@@H](C)O)NC(=O)[C@H](CCC(=O)O)NC(=O)[C@H](CC(C)C)NC(=O)[C@H](Cc2c[nH]cn2)NC(=O)[C@H]([C@@H](C)O)NC(=O)[C@H](CCC(N)=O)NC(=O)CNC(=O)[C@H]2CCCN2C(=O)[C@H](CCC(N)=O)NC(=O)[C@H]([C@@H](C)O)NC(=O)[C@H](C(C)C)NC(=O)[C@H](CCCNC(=N)N)NC1=O [compound 38] (cyclo(THLETTFTGDGCPKTIRVTQ[dP]GQ))
12.59	CC[C@H](C)[C@@H]1NC(=O)[C@H](CC(N)=O)NC(=O)[C@H](CCCCN)NC(=O)[C@@H]2CCCN2C(=O)[C@H]([C@@H](C)O)NC(=O)CNC(=O)[C@H](CC(=O)O)NC(=O)CNC(=O)[C@H]([C@@H](C)O)NC(=O)[C@H](Cc2ccccc2)NC(=O)[C@H]([C@@H](C)O)NC(=O)[C@H]([C@@H](C)O)NC(=O)[C@H](CCC(=O)O)NC(=O)[C@H](CC(C)C)NC(=O)[C@H](Cc2c[nH]cn2)NC(=O)[C@H]([C@@H](C)O)NC(=O)[C@H](CCC(N)=O)NC(=O)CNC(=O)[C@H]2CCCN2C(=O)[C@H](CCC(N)=O)NC(=O)[C@H]([C@@H](C)O)NC(=O)[C@H](C(C)C)NC(=O)[C@H](CCCNC(=N)N)NC1=O [compound 39] (cyclo(THLETTFTGDGTPKNIRVTQ[dP]GQ))
0.34	CC[C@H](C)[C@@H]1NC(=O)[C@H]([C@@H](C)O)NC(=O)[C@H](CCCCN)NC(=O)[C@@H]2CCCN2C(=O)[C@H](CC(N)=O)NC(=O)CNC(=O)[C@H](CC(=O)O)NC(=O)CNC(=O)[C@H]([C@@H](C)O)NC(=O)[C@H](Cc2ccccc2)NC(=O)[C@H]([C@@H](C)O)NC(=O)[C@H]([C@@H](C)O)NC(=O)[C@H](CCC(=O)O)NC(=O)[C@H](CC(C)C)NC(=O)[C@H](Cc2c[nH]cn2)NC(=O)[C@H]([C@@H](C)O)NC(=O)[C@H](CCC(N)=O)NC(=O)CNC(=O)[C@H]2CCCN2C(=O)[C@H](CCC(N)=O)NC(=O)[C@H]([C@@H](C)O)NC(=O)[C@H](C(C)C)NC(=O)[C@H](CCCNC(=N)N)NC1=O [compound 40] (cyclo(THLETTFTGDGNPKTIRVTQ[dP]GQ))
1.17	CC(C)C[C@@H]1NC(=O)[C@H](Cc2c[nH]cn2)NC(=O)[C@H]([C@@H](C)O)NC(=O)[C@H](CCC(N)=O)NC(=O)CNC(=O)[C@H]2CCCN2C(=O)[C@H](CCC(N)=O)NC(=O)[C@H]([C@@H](C)O)NC(=O)[C@H](C(C)C)NC(=O)[C@H](CCCNC(=N)N)NC(=O)[C@H](CCCNC(=N)N)NC(=O)[C@H]([C@@H](C)O)NC(=O)[C@H](CCCCN)NC(=O)[C@@H]2CCCN2C(=O)[C@H]([C@@H](C)O)NC(=O)CNC(=O)[C@H](CC(=O)O)NC(=O)CNC(=O)[C@H]([C@@H](C)O)NC(=O)[C@H](Cc2ccccc2)NC(=O)[C@H]([C@@H](C)O)NC(=O)[C@H]([C@@H](C)O)NC(=O)[C@H](CCC(=O)O)NC1=O [compound 41] (cyclo(THLETTFTGDGTPKTRRVTQ[dP]GQ))
1.07	CC(C)C[C@@H]1NC(=O)[C@H](Cc2c[nH]cn2)NC(=O)[C@H]([C@@H](C)O)NC(=O)[C@H](CCC(N)=O)NC(=O)CNC(=O)[C@H]2CCCN2C(=O)[C@H](CCC(N)=O)NC(=O)[C@H]([C@@H](C)O)NC(=O)[C@H](C(C)C)NC(=O)[C@H](CCCNC(=N)N)NC(=O)[C@H](Cc2ccc(O)cc2)NC(=O)[C@H]([C@@H](C)O)NC(=O)[C@H](CCCCN)NC(=O)[C@@H]2CCCN2C(=O)[C@H]([C@@H](C)O)NC(=O)CNC(=O)[C@H](CC(=O)O)NC(=O)CNC(=O)[C@H]([C@@H](C)O)NC(=O)[C@H](Cc2ccccc2)NC(=O)[C@H]([C@@H](C)O)NC(=O)[C@H]([C@@H](C)O)NC(=O)[C@H](CCC(=O)O)NC1=O [compound 42] (cyclo(THLETTFTGDGTPKTYRVTQ[dP]GQ))
1.13	CC[C@H](C)[C@@H]1NC(=O)[C@H]([C@@H](C)O)NC(=O)[C@H](CCCCN)NC(=O)[C@@H]2CCCN2C(=O)[C@H]([C@@H](C)O)NC(=O)CNC(=O)[C@H](CC(=O)O)NC(=O)CNC(=O)[C@H]([C@@H](C)O)NC(=O)[C@H](Cc2ccccc2)NC(=O)[C@H]([C@@H](C)O)NC(=O)[C@H]([C@@H](C)O)NC(=O)[C@H](CCC(=O)O)NC(=O)[C@H](CC(C)C)NC(=O)[C@H](Cc2c[nH]cn2)NC(=O)[C@H]([C@@H](C)O)NC(=O)[C@H](CCC(N)=O)NC(=O)CNC(=O)[C@H]2CCCN2C(=O)[C@H](CCC(N)=O)NC(=O)[C@H]([C@@H](C)O)NC(=O)[C@H](CCCNC(=N)N)NC(=O)[C@H](CCCNC(=N)N)NC1=O [compound 43] (cyclo(THLETTFTGDGTPKTIRRTQ[dP]GQ))
